Experimental data: patent US20090227647A1, “Compounds, Compositions and Methods for the Treatment of Islet Amyloid Polypeptide (IAPP) Accumulation in Diabetes” (priority 2008, published 2009)

What was measured:
[1] = biological target: T1, pre-fibrillized Amylin/IAPP fibrils (Homo sapiens, UniProt P10997); experiment: Thioflavin T fluorometry, disruption/disassembly of pre-formed Amylin/IAPP fibrils; format: biochemical; conditions: for % Inhibition Amylin/IAPP (result ± S.D.), Thioflavin T fluorometry: 3-day incubation at 37° C.; for disruption/disassembly of preformed Amylin/IAPP fibrils (result in words), Thioflavin T fluorometry: all concentrations tested (wt/wt ratios 1:1 to 1:0.001)
T1 construct: purchased Bachem Inc
T1 sequence (P10997 34-70 limits assumed): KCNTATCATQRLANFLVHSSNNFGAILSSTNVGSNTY
Procedure: The biological activity of the compounds provided herein as disruptors/inhibitors of IAPP amyloid protein fibrils, was assessed by determining the efficacy of the compounds to cause a disassembly/disruption of pre-formed IAPP amyloid fibrils. […] In this assay Thioflavin T binds specifically to fibrillar amyloid, and this binding produces a fluorescence enhancement at 485 nm that is directly proportional to the amount of fibrils present. The higher the fluorescence, the greater the amount of fibrils present (Naki et al, Lab. Invest. 65:104-110, 1991; Levine III, Protein Sci. 2:404-410, 1993; Amyloid: Int. J. Exp. Clin. Invest. 2:1-6, 1995).
In this assay Thioflavin T binds specifically to fibrillar amyloid, and this binding produces a fluorescence enhancement at 485 nm that is directly proportional to the amount of amyloid fibrils formed. The higher the fluorescence, the greater the amount of amyloid fibrils formed (Naki et al., Lab. Invest. 65:104-110, 1991; Levine III, Protein Sci. 2:404-410, 1993; Amyloid: Int. J. Exp. Clin. Invest. 2:1-6, 1995). The same premise is applied to Amylin/IAPP fibrils.
Following 3-days of co-incubation, 50 μl of each incubation mixture was transferred into a 96-well microtiter plate containing 150 μl of distilled water and 50 μl of a Thioflavin T solution (i.e. 500 mM Thioflavin T in 250 mM phosphate buffer, pH 6.8). The fluorescence was read at 485 nm (444 nm excitation wavelength) using an ELISA plate fluorometer after subtraction with buffer alone or compound alone, as blank.

Amylin/IAPP fibrils = biological target: T2, Amylin/IAPP fibrils (Homo sapiens, UniProt P10997); experiment: Congo red binding assay, Amylin/IAPP fibrils; format: biochemical; conditions: 3-day incubation
T2 sequence (P10997 34-70 limits assumed): T1 sequence (P10997 34-70 limits assumed)
Procedure: In the Congo red binding assay the ability of a given test compound to alter amyloid binding to Congo red was quantified. In this assay, IAPP fibrils and test compounds were incubated for 3 days and then vacuum filtered through a 0.2 μm filter. The amount of IAPP fibrils retained in the filter was then quantitated following staining of the filter with Congo red. After appropriate washing of the filter, any lowering of the Congo red color on the filter in the presence of the test compound (compared to the Congo red staining of the amyloid protein in the absence of the test compound) was indicative of the test compound's ability to diminish/alter the amount of aggregated and congophilic IAPP fibrils.
In the Congo red binding assay the ability of a test compound to alter Amylin/IAPP binding to Congo red is quantified. In this assay, Amylin/IAPP and test compounds were incubated for 3 days and then vacuum filtered through a 0.2 μm filter. The amount of Amylin/IAPP retained in the filter was then quantitated following staining of the filter with Congo red. After appropriate washing of the filter, any lowering of the Congo red color retained on the filter in the presence of the test compound (compared to the Congo red staining of the Amylin/IAPP protein in the absence of the test compound) was indicative of the test compound's ability to diminish/alter the amount of aggregated and/or congophilic Amylin/IAPP.

[2] = Amylin/IAPP:test compound wt/wt ratio 1:0.001
[3] = Amylin/IAPP:test compound wt/wt ratio 1:0.01
[4] = Amylin/IAPP:test compound wt/wt ratio 1:0.1
[5] = Amylin/IAPP:test compound wt/wt ratio 1:1

Row | Compound | % Inhibition Amylin/IAPP (result ± S.D.), Thioflavin T fluorometry [1, 2] | % Inhibition Amylin/IAPP (result ± S.D.), Thioflavin T fluorometry [1, 3] | % Inhibition Amylin/IAPP (result ± S.D.), Thioflavin T fluorometry [1, 4] | % Inhibition Amylin/IAPP (result ± S.D.), Thioflavin T fluorometry [1, 5] | % Inhibition Amylin/IAPP (result ± S.D.), Congo red binding (Amylin/IAPP fibrils; [2]) | % Inhibition Amylin/IAPP (result ± S.D.), Congo red binding (Amylin/IAPP fibrils; [3]) | % Inhibition Amylin/IAPP (result ± S.D.), Congo red binding (Amylin/IAPP fibrils; [4]) | % Inhibition Amylin/IAPP (result ± S.D.), Congo red binding (Amylin/IAPP fibrils; [5]) | disruption/disassembly of preformed Amylin/IAPP fibrils (result in words), Thioflavin T fluorometry [1]
1 | O=C(Nc1cccc(O)c1O)c1ccc(O)c(O)c1 [Compound 2, 3,4 dihydroxybenzoic Acid 2,3 Dihydroxyanilide] | 5.1 ± 4.57% | 52.9 ± 4.36% | 92.6 ± 0.84% | 99.4 ± 1.69% | 5.3 ± 6.75% | 5.2 ± 0.23% | 33.5 ± 6.38% | 45.8 ± 1.62% | –
2 | Oc1ccc(C23CC4CC(C2)CC(c2ccc(O)c(O)c2)(C4)C3)cc1O [Compound 9, 1,3 bis(3,4 dihydroxyphenyl) Adamantane] | 4.3 ± 2.29% | 36.6 ± 3.55% | 88.5 ± 0.31% | 97.6 ± 0.31% | 16.5 ± 9.88% | 12.0 ± 8.03% | 41.2 ± 5.64% | 88.6 ± 2.08% | –
3 | CN(C(=O)c1ccc(O)c(O)c1)c1ccc(O)c(O)c1 [Compound 4, 3,4 Dihydroxybenzoic Acid 3,4 Dihydroxy N-methyl Anilide] | 9.8 ± 7.47% | 57.4±1.61% | 95.4±0.23% | 100.0 ± 0.09% | 0.0 ± 7.35% | 8.0 ± 4.62% | 46.0±7.43% | 70.8±1.55% | most efficacious
4 | Oc1ccc(-c2cc(-c3ccc(O)c(O)c3)[nH]n2)cc1O [Compound 8, 3,5 bis(3,4 Dihydroxyphenyl)Pyrazole] | 8.1 ± 1.54% | 48.4 ± 0.31% | 91.2 ± 0.76% | 99.0 ± 1.05% | 1.7 ± 1.98% | 20.2 ± 7.11% | 39.7 ± 7.20% | 74.9 ± 1.26% | –
5 | Oc1ccc(-c2nnc(-c3ccc(O)c(O)c3)[nH]2)cc1O [Compound 7, 3,5 bis(3,4 Dihydroxyphenyl) 1,2,4 Triazole] | 4.6 ± 4.34% | 41.4 ± 2.13% | 89.7 ± 0.54% | 99.8 ± 0.31% | 9.1 ± 1.29% | – | 44.1 ± 5.62% | 66.2±7.81% | –
6 | O=S(=O)(Nc1ccc(O)c(O)c1)c1ccc(O)c(O)c1 [Compound 5, 3,4 Dihydroxybenzenesulfonic acid 3,4 Dihydroxysulfonamide] | 14.1 ± 1.62% | 56.7±0.4% | 93.7±1.13% | 99.7 ± 0.38% | 3.5 ± 2.40% | 8.3 ± 6.91% | 43.4 ± 3.39% | 54.6 ± 14.22% | most efficacious
7 | Oc1ccc(-c2cnc(-c3ccc(O)c(O)c3)[nH]2)cc1O [Compound 6, 2,4 bis(3,4 dihydroxyphenyl) Imidazole] | 17.2 ± 4.22% | 68.9±3.33% | 96.3±0.76% | 100.0 ± 0.26% | 5.2 ± 2.31% | 1.0 ± 4.82% | 36.4 ± 12.77% | 80.7 ± 0.75% | most efficacious
8 | O=C(Nc1ccc(O)c(O)c1)c1cccc(O)c1O [Compound 1, 2,3 dihydroxybenzoic Acid 3,4 Dihydroxyanilide] | 14.3 ± 3.56% | 60.9±0.61% | 95.1±0.48% | 98.5 ± 0.26% | 0.0 ± 6.44% | 7.8 ± 6.13% | 35.7 ± 5.12% | 58.1 ± 6.67% | most efficacious
9 | O=C(Nc1cccc(O)c1O)c1cccc(O)c1O [Compound 3, 2,3 dihydroxybenzoic Acid 2,3 Dihydroxyanilide] | 5.0 ± 6.78% | 51.7±3.56% | 94.5±0.91% | 99.3 ± 0.6% | 7.1 ± 4.14% | 3.6 ± 1.16% | 26.0 ± 5.79% | 60.1 ± 3.78% | most efficacious
